Measured values: publication PMC7921063, “The Effects of Genetic Mutations and Drugs on the Activity of the Thiamine Transporter, SLC19A2” (The AAPS Journal, 2021)

Target: T1, SLC19A2 (Homo sapiens, UniProt O60779)
T1 sequence (O60779 1-497): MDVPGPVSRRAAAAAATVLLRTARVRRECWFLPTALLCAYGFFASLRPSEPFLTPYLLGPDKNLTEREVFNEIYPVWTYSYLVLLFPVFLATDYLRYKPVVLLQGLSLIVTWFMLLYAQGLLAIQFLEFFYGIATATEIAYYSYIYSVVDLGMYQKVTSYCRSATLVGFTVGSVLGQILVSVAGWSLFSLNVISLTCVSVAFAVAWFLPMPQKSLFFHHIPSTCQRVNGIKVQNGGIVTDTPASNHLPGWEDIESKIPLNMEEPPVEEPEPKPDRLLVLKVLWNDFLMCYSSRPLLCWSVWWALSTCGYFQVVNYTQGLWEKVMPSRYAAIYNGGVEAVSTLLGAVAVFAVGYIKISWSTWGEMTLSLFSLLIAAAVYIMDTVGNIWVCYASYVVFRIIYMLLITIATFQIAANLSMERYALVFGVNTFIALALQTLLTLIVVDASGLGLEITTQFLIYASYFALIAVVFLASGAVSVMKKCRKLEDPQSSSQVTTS
Assay: SLC19A2 inhibitor screen: [3H]-thiamine uptake in SLC19A2-overexpressing HEK293 cells
Assay type: cell-based
Parameters: host or cells: HEK293, stably overexpressing SLC19A2 and transiently transfected with a further 500 ng wild-type plasmid
Conditions: HEK293, 10 min, drug 1 mM, [3H]-thiamine 25 nM, 10 min, HEK293 cells expressing SLC19A2; relative to uptake without inhibitor; read-out: Average % SLC19A2 thiamine uptake
Method: Plasmids encoding wild-type SLC19A2 and three TRMA-associated variants were generated by Genscript Inc. (Piscataway, USA). Methods for generation of stably overexpressing SLC19A2 cell lines and uptake studies have been previously described ([11], [12]). Inhibition and kinetic studies were performed in SLC19A2-overexpressing stable HEK293 cells transiently transfected with an additional 500 ng of SLC19A2 wild-type plasmid.
Prescription drugs associated with MA ([2]) in addition to others belonging to listed drug classes (e.g., proton-pump inhibitors; 63 compounds total) were screened in triplicate at 1 mM to evaluate inhibitory activity against SLC19A2. […] Each plate contained control wells exposed for 10 min (within linear range, Supplemental Figure 1) to [^3H]-thiamine (positive control), [^3H]-thiamine plus 1 mM of amprolium (negative control), and [^3H]-thiamine plus 1 mM of screened drug (3 replicates per drug). Methods have been previously described ([11]). SLC19A2 inhibitors were defined as compounds that decreased SLC19A2-mediated thiamine uptake by 50% or more at 1 mM. For compounds that met this definition, inhibition assays were conducted and IC50 values were calculated by nonlinear fitting using GraphPad Prism 7 (La Jolla, CA) ([11]).
Fig. 3 Common mechanisms of drug-induced megaloblastic anemia and SLC19A2 inhibitor drug screen workflow. A list of drugs associated with inducing megaloblastic anemia through various mechanisms was compiled (a). Each drug was dissolved to a final concentration of 1 mM in buffer containing radiolabeled [^3H] thiamine and exposed to HEK293 cells expressing SLC19A2 wild-type transporter for 10 min.

Compound	remaining activity at 1000 µM
Cc1oncc1C(=O)Nc1ccc(C(F)(F)F)cc1 [Leflunomide]	57.7%
O=C(O)c1cc(/N=N/c2ccc(S(=O)(=O)Nc3ccccn3)cc2)ccc1O [Sulfasalazine]	101%
CN/C(=N/CCSCc1nc[nH]c1C)NC#N [Cimetidine]	107%
NCC[C@H](O)C(=O)N[C@@H]1C[C@H](N)[C@@H](O[C@H]2O[C@H](CN)[C@@H](O)[C@H](O)[C@H]2O)[C@H](O)[C@H]1O[C@H]1O[C@H](CO)[C@@H](O)[C@H](N)[C@H]1O [Amikacin]	98.7%
COc1c(C)c2c(c(O)c1C/C=C(\C)CCC(=O)O)C(=O)OC2 [Mycophenolic acid]	82.7%
Oc1ncnc2[nH]ncc12 [Allopurinol]	96.9%
CCc1nc(N)nc(N)c1-c1ccc(Cl)cc1 [Pyrimethamine]	99.2%
CNC(C)C1CCC(N)C(OC2C(N)CC(N)C(OC3OCC(C)(O)C(NC)C3O)C2O)O1 (stereo not shown) [Gentamicin]	81.9%
Nc1ccn([C@@H]2O[C@H](CO)[C@@H](O)C2(F)F)c(=O)n1 [Gemcitabine]	63.3%
COc1ccc2nc([S@@+]([O-])Cc3ncc(C)c(OC)c3C)[nH]c2c1 [Esomeprazole]	57.7%
CO[C@H]1/C=C/O[C@@]2(C)Oc3c(C)c(O)c4c(O)c(c(/C=N/N5CCN(C)CC5)c(O)c4c3C2=O)NC(=O)/C(C)=C\C=C\[C@H](C)[C@H](O)[C@@H](C)[C@@H](O)[C@@H](C)[C@H](OC(C)=O)[C@@H]1C [Rifampicin]	56.1%
CC1(C)S[C@@H]2[C@H](NC(=O)C(C(=O)O)c3ccccc3)C(=O)N2[C@H]1C(=O)O (stereo partly shown) [Carbenicillin]	90.8%
Nc1nc(N)c2nc(CNc3ccc(C(=O)N[C@@H](CCC(=O)O)C(=O)O)cc3)cnc2n1 [Aminopterin]	93%
CN(C)[C@@H]1C(O)=C(C(N)=O)C(=O)[C@@]2(O)C(O)=C3C(=O)c4c(O)cccc4[C@@](C)(O)[C@H]3C[C@@H]12 [Tetracycline]	83.6%
C/C(O)=C(\C#N)C(=O)Nc1ccc(C(F)(F)F)cc1 [Teriflunomide]	95.7%
CC[C@H]1OC(=O)[C@H](C)[C@@H](O[C@H]2C[C@@](C)(OC)[C@@H](O)[C@H](C)O2)[C@H](C)[C@@H](O[C@@H]2O[C@H](C)C[C@H](N(C)C)[C@H]2O)[C@](C)(O)C[C@@H](C)CN(C)[C@H](C)[C@@H](O)[C@]1(C)O [Azithromycin]	81.9%
NNC(=O)c1ccncc1 [Isoniazid]	108%
Nc1ccc(O)c(C(=O)O)c1 [5-aminosalicylic acid]	87.7%
COCCCOc1ccnc(C[S+]([O-])c2nc3ccccc3[nH]2)c1C (stereo not shown) [Rabeprazole]	75.3%
O=c1[nH]cc(F)c(=O)[nH]1 [5-fluorouracil]	93.8%
CC[C@H]1OC(=O)[C@H](C)[C@@H](O[C@H]2C[C@@](C)(OC)[C@@H](O)[C@H](C)O2)[C@H](C)[C@@H](O[C@@H]2O[C@H](C)C[C@H](N(C)C)[C@H]2O)[C@](C)(OC)C[C@@H](C)C(=O)[C@H](C)[C@@H](O)[C@]1(C)O [Clarithromycin]	58.2%
COc1ncnc(NS(=O)(=O)c2ccc(N)cc2)c1OC [Sulfadoxine]	94.8%
Nc1nc(N)c2nc(-c3ccccc3)c(N)nc2n1 [Triamterene]	111%
[H]/N=C(\N/C(=N/[H])Nc1ccc(Cl)cc1)NC(C)C [Proguanil]	68.8%

Compound	remaining activity at 1000 µM
C=C[C@H]1C[N@@]2CC[C@H]1C[C@@H]2[C@@H](O)c1ccnc2ccc(OC)cc12 [Quinidine]	53%
CNC(=C[N+](=O)[O-])NCCSCc1ccc(CN(C)C)o1 [Ranitidine]	111%
COc1cc(NC(C)CCCN)c2ncccc2c1 (stereo not shown) [Primaquine]	76.5%
Cc1cnc(Nc2ccc(OCCN3CCCC3)cc2)nc1Nc1cccc(S(=O)(=O)NC(C)(C)C)c1 [Fedratinib]	21%
CC1(C)S[C@@H]2[C@H](NC(=O)[C@H](N)c3ccc(O)cc3)C(=O)N2[C@H]1C(=O)O [Amoxicillin]	95.9%
CO[C@H]1O[C@@H]2O[C@@]3(C)CC[C@H]4[C@H](C)CC[C@@H]([C@H]1C)[C@@]24OO3 [Artemether]	67.4%
C[C@]12CC[C@@H]3c4ccc(O)cc4CC[C@H]3[C@@H]1CC[C@@H]2O [Estradiol]	112%
Cc1c(OCC(F)(F)F)ccnc1C[S+]([O-])c1nc2ccccc2[nH]1 (stereo not shown) [Lansoprazole]	45.9%
Cn1cnc([N+](=O)[O-])c1Sc1ncnc2nc[nH]c12 [Azathioprine]	87.2%
CN(Cc1cnc2nc(N)nc(N)c2n1)c1ccc(C(=O)N[C@@H](CCC(=O)O)C(=O)O)cc1 [Methotrexate]	84.9%
Cc1onc(-c2ccccc2)c1C(=O)N[C@@H]1C(=O)N2[C@@H]1SC(C)(C)[C@@H]2C(=O)O [Oxacillin]	110%
[H]/N=C(/N)N/C(=N/[H])NCCc1ccccc1 [Phenformin]	82.3%
CN(C)C(=N)N=C(N)N [Metformin]	74.2%
Cc1nc2ccc(CN(C)c3ccc(C(=O)N[C@@H](CCC(=O)O)C(=O)O)s3)cc2c(=O)[nH]1 [Raltitrexed]	88.2%
CC(=O)NC[C@H]1CN(c2ccc(N3CCOCC3)c(F)c2)C(=O)O1 [Linezolid]	77.7%
C[C@H]1c2cccc(O)c2C(=O)C2=C(O)[C@]3(O)C(=O)C(C(N)=O)=C(O)[C@@H](N(C)C)[C@@H]3[C@@H](O)[C@@H]21 [Doxycycline]	67.8%
NC(N)=Nc1nc(CSCCC(N)=NS(N)(=O)=O)cs1 [Famotidine]	74%
C=C[C@H]1C[N@@]2CC[C@H]1C[C@H]2[C@H](O)c1ccnc2ccc(OC)cc12 [Quinine]	69.7%
S=c1[nH]cnc2nc[nH]c12 [Mercaptopurine]	90.5%
Nc1nc(F)nc2c1ncn2[C@@H]1O[C@H](CO)[C@@H](O)[C@@H]1O [Fludarabine]	71.1%
O=C(N[C@H](CO)[C@H](O)c1ccc([N+](=O)[O-])cc1)C(Cl)Cl [Chloramphenicol]	91.5%
Nc1nc2nc[nH]c2c(=S)[nH]1 [Thioguanine]	93.3%
O=C1NC(=O)C(c2ccccc2)(c2ccccc2)N1 [Phenytoin]	75%

Same assay, conditions: HEK293, 10 min, read-out: Average % SLC19A2 thiamine uptake

Compound	remaining activity at 1000 µM
COc1cc2c(c(OC)c1OC)-c1ccc(OC)c(=O)cc1[C@@H](NC(C)=O)CC2 [Colchicine]	95.9%
CC1(C)S[C@@H]2[C@H](NC(=O)[C@H](N)c3ccccc3)C(=O)N2[C@H]1C(=O)O [Ampicillin]	102%

Same assay, conditions: HEK293, 10 min; at 1 mM; read-out: reduction in thiamine transport (designated SLC19A2 inhibitor)

Compound	inhibition at 1000 µM
Cc1cnc(Nc2ccc(OCCN3CCCC3)cc2)nc1Nc1cccc(S(=O)(=O)NC(C)(C)C)c1 [Fedratinib]	≥ 50%
Cc1c(OCC(F)(F)F)ccnc1C[S+]([O-])c1nc2ccccc2[nH]1 (stereo not shown) [Lansoprazole]	≥ 50%

Same assay, conditions: drug 1 mM, [3H]-thiamine 25 nM, 10 min, HEK293 cells expressing SLC19A2; relative to uptake without inhibitor

Compound	Average % SLC19A2 thiamine uptake
Neomycin	86.37%
NC(=O)NO [Hydroxyurea]	105.5%
CCCCN(CCCC)CC(O)c1cc(Cl)cc2c1-c1ccc(Cl)cc1/C2=C/c1ccc(Cl)cc1 (stereo not shown) [Lumafantrine]	87.72%
O=C1CN(/N=C/c2ccc([N+](=O)[O-])o2)C(=O)N1 [Nitrofuranatoin]	101.075%
